Measurements: US12134616B2, “Tricyclic pesticidal compounds” (BASF SE, priority 2018, dated 2024)

What was measured:
Type in all cases: in vivo
[1] = tested on: boll weevil (Anthonomus grandis); assay: Boll weevil (Anthonomus grandis) microtiter diet test, egg and larval mortality; conditions: 120 h, sprayed onto insect diet, 5 days, read-out: mortality (egg and larval) in comparison with untreated controls
Method: (§1) If not otherwise specified, the test solutions are prepared as follows: The active compound is dissolved at the desired concentration in a mixture of 1:1 (vol:vol) distilled water:acteone. The test solution is prepared at the day of use. Test solutions are prepared in general at concentrations of 1000 ppm, 500 ppm, 300 ppm, 100 ppm and 30 ppm (wt/vol).
(§2) For evaluating control of boll weevil (Anthonomus grandis) the test unit consisted of 96-well-microtiter plates containing an insect diet and 5-10 A. grandis eggs. The compounds were formulated using a solution containing 75% v/v water and 25% v/v DMSO. Different concentrations of formulated compounds were sprayed onto the insect diet at 5 μl, using a custom built micro atomizer, at two replications. After application, microtiter plates were incubated at about 25±1° C. and about 75±5% relative humidity for 5 days. Egg and larval mortality was then visually assessed.

[2] = tested on: tobacco budworm (Heliothis virescens); assay: Tobacco budworm (Heliothis virescens) microtiter diet test, egg and larval mortality; conditions: 120 h, sprayed onto insect diet, 5 days, read-out: mortality (egg and larval) in comparison with untreated controls
Method: as §1
as §2, with “of tobacco budworm (Heliothis virescens)” for “of boll weevil (Anthonomus grandis)”, “and 15-25 H. virescens” for “and 5-10 A. grandis”, “at 10” for “at 5”, “about 28±1°” for “about 25±1°”, “about 80±5%” for “about 75±5%”

[3] = tested on: vetch aphid (Megoura viciae); assay: Vetch aphid (Megoura viciae) broad bean leaf disk test, contact or systemic; conditions: foliar, 120 h, sprayed onto leaf disks, 5 days, read-out: mortality (aphid) in comparison with untreated controls
Method: as §1
For evaluating control of vetch aphid (Megoura viciae) through contact or systemic means the test unit consisted of 24-well-microtiter plates containing broad bean leaf disks.
The compounds were formulated using a solution containing 75% v/v water and 25% v/v DMSO. Different concentrations of formulated compounds were sprayed onto the leaf disks at 2.5 μl, using a custom built micro atomizer, at two replications. After application, the leaf disks were air-dried and 5-8 adult aphids placed on the leaf disks inside the microtiter plate wells. The aphids were then allowed to suck on the treated leaf disks and incubated at about 23±1° C. and about 50±5% relative humidity for 5 days. Aphid mortality and fecundity was then visually assessed.

[4] = tested on: green peach aphid (Myzus persicae); assay: Green peach aphid (Myzus persicae) artificial diet/membrane test, systemic; conditions: 72 h, pipetted into aphid diet, 3 days, read-out: mortality (aphid) in comparison with untreated controls
Method: as §1
For evaluating control of green peach aphid (Myzus persicae) through systemic means the test unit consisted of 96-well-microtiter plates containing liquid artificial diet under an artificial membrane. The compounds were formulated using a solution containing 75% v/v water and 25% v/v DMSO. Different concentrations of formulated compounds were pipetted into the aphid diet, using a custom built pipetter, at two replications. After application, 5-8 adult aphids were placed on the artificial membrane inside the microtiter plate wells. The aphids were then allowed to suck on the treated aphid diet and incubated at about 23±1° C. and about 50±5% relative humidity for 3 days. Aphid mortality and fecundity was then visually assessed.

Measured: mortality at 2500 ppm

CCS(=O)(=O)c1cccnc1-c1cn2c(ccc3c(C(F)(F)F)cc(C(F)(F)F)nc32)n1 [Compound I.54, 8-(3-ethylsulfonyl-2-pyridyl)-2,4-bis(trifluoromethyl)imidazo[1,2-a][1,8]naphthyridine]
> 75%: [1] | [2] | [3]

CCS(=O)(=O)c1cccnc1-c1nc2cc(C(F)(F)F)c3ccccc3n2n1 [Compound I.65, 2-(3-ethylsulfonyl-2-pyridyl)-5-(trifluoromethyl)-[1,2,4]triazolo[1,5-a]quinoline]
> 75%: all assays above

CCSc1cc(C(F)(F)F)cnc1-c1nc2cnc3c(OC(F)(F)F)cccc3c2n1C [Compound I.5, 2-[3-ethylsulfanyl-5-(trifluoromethyl)-2-pyridyl]-1-methyl-6-(trifluoromethoxy)imidazo[4,5-c]quinoline]
> 75%: [1] | [2]

CCS(=O)(=O)c1cc(C(F)(F)F)cnc1-c1nc2cnc3c(OC(F)(F)F)cccc3c2n1C [Compound I.1, 2-[3-ethylsulfonyl-5-(trifluoromethyl)-2-pyridyl]-1-methyl-6-(trifluoromethoxy)imidazo[4,5-c]quinoline]
> 75%: all assays above
